Test results taken from ChEMBL document CHEMBL3217717, “Synthesis and antiproliferative activity of novel erythromycin derivatives” (Medchemcomm, 2010).

Columns and labels:
Type in all cases: functional, cell-based
[1] = Cytotoxicity against human HT1080 cells assessed as growth inhibition after 48 hrs by MTT assay; conditions: HT-1080, 48 h
[2] = Cytotoxicity against human SGC7901 cells assessed as growth inhibition after 48 hrs by MTT assay; conditions: SGC-7901, 48 h
[3] = system: KB; experiment: Cytotoxicity against human KB cells assessed as growth inhibition after 48 hrs by MTT assay

Compound | IC50 [1] [µM] | IC50 [2] [µM] | IC50 [3] [µM]
CC[C@H]1OC(=O)[C@H](C)[C@@H](O[C@H]2C[C@@](C)(OC)[C@@H](O)[C@H](C)O2)[C@H](C)[C@@H](O[C@@H]2O[C@H](C)C[C@H](N(C)CCN(C)[C@H]3C[C@@H](C)O[C@@H](O[C@@H]4[C@@H](C)[C@H](O[C@H]5C[C@@](C)(OC)[C@@H](O)[C@H](C)O5)[C@@H](C)C(=O)O[C@H](CC)[C@@](C)(O)[C@H](O)[C@@H](C)/C(=N\OCc5ccccc5)[C@H](C)C[C@@]4(C)O)[C@@H]3O)[C@H]2O)[C@](C)(O)C[C@@H](C)/C(=N/OCc2ccccc2)[C@H](C)[C@@H](O)[C@]1(C)O | > 100 | > 100 | > 100
CC[C@H]1OC(=O)[C@H](C)[C@@H](O[C@H]2C[C@@](C)(OC)[C@@H](O)[C@H](C)O2)[C@H](C)[C@@H](O[C@@H]2O[C@H](C)C[C@H](N(C)CCN(C)[C@H]3C[C@@H](C)O[C@@H](O[C@@H]4[C@@H](C)[C@H](O[C@H]5C[C@@](C)(OC)[C@@H](O)[C@H](C)O5)[C@@H](C)C(=O)O[C@H](CC)[C@@](C)(O)[C@H](O)[C@@H](C)/C(=N\OCOCCOC)[C@H](C)C[C@@]4(C)O)[C@@H]3O)[C@H]2O)[C@](C)(O)C[C@@H](C)[C@H](O)[C@H](C)[C@@H](O)[C@]1(C)O | 21.9 | 45.2 | 37.8
CC[C@H]1OC(=O)[C@H](C)[C@@H](O[C@H]2C[C@@](C)(OC)[C@@H](O)[C@H](C)O2)[C@H](C)[C@@H](O[C@@H]2O[C@H](C)C[C@H](N(C)CCN(C)[C@H]3C[C@@H](C)O[C@@H](O[C@@H]4[C@@H](C)[C@H](O[C@H]5C[C@@](C)(OC)[C@@H](O)[C@H](C)O5)[C@@H](C)C(=O)O[C@H](CC)[C@@](C)(O)[C@H](O)[C@@H](C)/C(=N\OCc5cc(OC)c(OC)c(OC)c5)[C@H](C)C[C@@]4(C)O)[C@@H]3O)[C@H]2O)[C@](C)(OC)C[C@@H](C)C(=O)[C@H](C)[C@@H](O)[C@]1(C)O | 41.5 | 17.4 | 30.2
CC[C@H]1OC(=O)[C@H](C)[C@@H](O[C@H]2C[C@@](C)(OC)[C@@H](O)[C@H](C)O2)[C@H](C)[C@@H](O[C@@H]2O[C@H](C)C[C@H](N(C)C(=O)CN(C)[C@H]3C[C@@H](C)O[C@@H](O[C@@H]4[C@@H](C)[C@H](O[C@H]5C[C@@](C)(OC)[C@@H](O)[C@H](C)O5)[C@@H](C)C(=O)O[C@H](CC)[C@@](C)(O)[C@H](O)[C@@H](C)C(=O)[C@H](C)C[C@@]4(C)O)[C@@H]3O)[C@H]2O)[C@](C)(OC)C[C@@H](C)C(=O)[C@H](C)[C@@H](O)[C@]1(C)O | > 100 | 65.9 | 27.6
CC[C@H]1OC(=O)[C@H](C)[C@@H](O[C@H]2C[C@@](C)(OC)[C@@H](O)[C@H](C)O2)[C@H](C)[C@@H](O[C@@H]2O[C@H](C)C[C@H](N(C)CCN(C)[C@H]3C[C@@H](C)O[C@@H](O[C@@H]4[C@@H](C)[C@H](O[C@H]5C[C@@](C)(OC)[C@@H](O)[C@H](C)O5)[C@@H](C)C(=O)O[C@H](CC)[C@@](C)(O)[C@H](O)[C@@H](C)C(=O)[C@H](C)C[C@@]4(C)OC)[C@@H]3O)[C@H]2O)[C@](C)(OC)C[C@@H](C)C(=O)[C@H](C)[C@@H](O)[C@]1(C)O | 8.1 | 20 | 17.7
CCCCCCCCO/N=C1/[C@H](C)C[C@@](C)(O)[C@H](O[C@@H]2O[C@H](C)C[C@H](N(C)CCN(C)[C@H]3C[C@@H](C)O[C@@H](O[C@@H]4[C@@H](C)[C@H](O[C@H]5C[C@@](C)(OC)[C@@H](O)[C@H](C)O5)[C@@H](C)C(=O)O[C@H](CC)[C@@](C)(O)[C@H](O)[C@@H](C)/C(=N\OCCCCCCCC)[C@H](C)C[C@@]4(C)O)[C@@H]3O)[C@H]2O)[C@@H](C)[C@H](O[C@H]2C[C@@](C)(OC)[C@@H](O)[C@H](C)O2)[C@@H](C)C(=O)O[C@H](CC)[C@@](C)(O)[C@H](O)[C@H]1C | > 100 | > 100 | > 100
CC[C@H]1OC(=O)[C@H](C)[C@@H](O[C@H]2C[C@@](C)(OC)[C@@H](O)[C@H](C)O2)[C@H](C)[C@@H](O[C@@H]2O[C@H](C)C[C@H](N(C)CCN(C)[C@H]3C[C@@H](C)O[C@@H](O[C@@H]4[C@@H](C)[C@H](O[C@H]5C[C@@](C)(OC)[C@@H](O)[C@H](C)O5)[C@@H](C)C(=O)O[C@H](CC)[C@@](C)(O)[C@H](O)[C@@H](C)[C@@H](O)[C@H](C)C[C@@]4(C)O)[C@@H]3O)[C@H]2O)[C@](C)(O)C[C@@H](C)[C@H](O)[C@H](C)[C@@H](O)[C@]1(C)O | > 100 | 61.6 | 44.9
CC[C@H]1OC(=O)[C@H](C)[C@@H](O[C@H]2C[C@@](C)(OC)[C@@H](O)[C@H](C)O2)[C@H](C)[C@@H](O[C@@H]2O[C@H](C)C[C@H](N(C)CCN(C)[C@H]3C[C@@H](C)O[C@@H](O[C@@H]4[C@@H](C)[C@H](O[C@H]5C[C@@](C)(OC)[C@@H](O)[C@H](C)O5)[C@@H](C)C(=O)O[C@H](CC)[C@@](C)(O)[C@H](O)[C@@H](C)/C(=N\OCOCCOC)[C@H](C)C[C@@]4(C)O)[C@@H]3O)[C@H]2O)[C@](C)(O)C[C@@H](C)/C(=N/OCOCCOC)[C@H](C)[C@@H](O)[C@]1(C)O | 3.5 | > 100 | 5.5
CC[C@H]1OC(=O)[C@H](C)[C@@H](O[C@H]2C[C@@](C)(OC)[C@@H](O)[C@H](C)O2)[C@H](C)[C@@H](O[C@@H]2O[C@H](C)C[C@H](N(C)CCN(C)[C@H]3C[C@@H](C)O[C@@H](O[C@@H]4[C@@H](C)[C@H](O[C@H]5C[C@@](C)(OC)[C@@H](O)[C@H](C)O5)[C@@H](C)C(=O)O[C@H](CC)[C@@](C)(O)[C@H](O)[C@@H](C)C(=O)[C@H](C)C[C@@]4(C)OC)[C@@H]3O)[C@H]2O)[C@](C)(O)C[C@@H](C)[C@H](O)[C@H](C)[C@@H](O)[C@]1(C)O | 20.4 | 39.8 | 28.5
CC[C@H]1OC(=O)[C@H](C)[C@@H](O[C@H]2C[C@@](C)(OC)[C@@H](O)[C@H](C)O2)[C@H](C)[C@@H](O[C@@H]2O[C@H](C)C[C@H](N(C)CC(=O)N(C)[C@H]3C[C@@H](C)O[C@@H](O[C@@H]4[C@@H](C)[C@H](O[C@H]5C[C@@](C)(OC)[C@@H](O)[C@H](C)O5)[C@@H](C)C(=O)O[C@H](CC)[C@@](C)(O)[C@H](O)[C@@H](C)C(=O)[C@H](C)C[C@@]4(C)O)[C@@H]3O)[C@H]2O)[C@](C)(OC)C[C@@H](C)C(=O)[C@H](C)[C@@H](O)[C@]1(C)O | > 100 | > 100 | > 100
CC[C@H]1OC(=O)[C@H](C)[C@@H](O)[C@H](C)[C@@H](O[C@@H]2O[C@H](C)C[C@H](N(C)CCN(C)[C@H]3C[C@@H](C)O[C@@H](O[C@@H]4[C@@H](C)[C@H](O[C@H]5C[C@@](C)(OC)[C@@H](O)[C@H](C)O5)[C@@H](C)C(=O)O[C@H](CC)[C@@](C)(O)[C@H](O)[C@@H](C)/C(=N\O)[C@H](C)C[C@@]4(C)OC)[C@@H]3O)[C@H]2O)[C@](C)(OC)C[C@@H](C)/C(=N/O)[C@H](C)[C@@H](O)[C@]1(C)O | 42.8 | 12.7 | 38.2
CC[C@H]1OC(=O)[C@H](C)[C@@H](O[C@H]2C[C@@](C)(OC)[C@@H](O)[C@H](C)O2)[C@H](C)[C@@H](O[C@@H]2O[C@H](C)C[C@H](N(C)CCN(C)[C@H]3C[C@@H](C)O[C@@H](O[C@@H]4[C@@H](C)[C@H](O[C@H]5C[C@@](C)(OC)[C@@H](O)[C@H](C)O5)[C@@H](C)C(=O)O[C@H](CC)[C@@](C)(O)[C@H](O)[C@@H](C)/C(=N\OCc5ccccc5)[C@H](C)C[C@@]4(C)O)[C@@H]3O)[C@H]2O)[C@](C)(O)C[C@@H](C)/C(=N/OCOCCOC)[C@H](C)[C@@H](O)[C@]1(C)O | > 100 | > 100 | > 100
CC[C@H]1OC(=O)[C@H](C)[C@@H](O[C@H]2C[C@@](C)(OC)[C@@H](O)[C@H](C)O2)[C@H](C)[C@@H](O[C@@H]2O[C@H](C)C[C@H](N(C)CCN(C)[C@H]3C[C@@H](C)O[C@@H](O[C@@H]4[C@@H](C)[C@H](O[C@H]5C[C@@](C)(OC)[C@@H](O)[C@H](C)O5)[C@@H](C)C(=O)O[C@H](CC)[C@@](C)(O)[C@H](O)[C@@H](C)/C(=N\OCc5cc(OC)c(OC)c(OC)c5)[C@H](C)C[C@@]4(C)OC)[C@@H]3O)[C@H]2O)[C@](C)(OC)C[C@@H](C)/C(=N/OCc2cc(OC)c(OC)c(OC)c2)[C@H](C)[C@@H](O)[C@]1(C)O | 10.3 | 20 | 20.1
CC[C@H]1OC(=O)[C@H](C)[C@@H](O)[C@H](C)[C@@H](O[C@@H]2O[C@H](C)C[C@H](N(C)CCN(C)[C@H]3C[C@@H](C)O[C@@H](O[C@@H]4[C@@H](C)[C@H](O)[C@@H](C)C(=O)O[C@H](CC)[C@@](C)(O)[C@H](O)[C@@H](C)C(=O)[C@H](C)C[C@@]4(C)OC)[C@@H]3O)[C@H]2O)[C@](C)(OC)C[C@@H](C)C(=O)[C@H](C)[C@@H](O)[C@]1(C)O | > 100 | > 100 | > 100
CC[C@H]1OC(=O)[C@H](C)[C@@H](O[C@H]2C[C@@](C)(OC)[C@@H](O)[C@H](C)O2)[C@H](C)[C@@H](O[C@@H]2O[C@H](C)C[C@H](N(C)CC(=O)N(C)[C@H]3C[C@@H](C)O[C@@H](O[C@@H]4[C@@H](C)[C@H](O)[C@@H](C)C(=O)O[C@H](CC)[C@@](C)(O)[C@H](O)[C@@H](C)/C(=N\OCOCCOC)[C@H](C)C[C@@]4(C)O)[C@@H]3O)[C@H]2O)[C@](C)(OC)C[C@@H](C)C(=O)[C@H](C)[C@@H](O)[C@]1(C)O | > 100 | > 100 | > 100
CC[C@H]1OC(=O)[C@H](C)[C@@H](O[C@H]2C[C@@](C)(OC)[C@@H](O)[C@H](C)O2)[C@H](C)[C@@H](O[C@@H]2O[C@H](C)C[C@H](N(C)CCN(C)[C@H]3C[C@@H](C)O[C@@H](O[C@@H]4[C@@H](C)[C@H](O[C@H]5C[C@@](C)(OC)[C@@H](O)[C@H](C)O5)[C@@H](C)C(=O)O[C@H](CC)[C@@](C)(O)[C@H](O)[C@@H](C)/C(=N\OCc5cc(OC)c(OC)c(OC)c5)[C@H](C)C[C@@]4(C)O)[C@@H]3O)[C@H]2O)[C@](C)(O)C[C@@H](C)/C(=N/OCc2cc(OC)c(OC)c(OC)c2)[C@H](C)[C@@H](O)[C@]1(C)O | 3.9 | 28.4 | 8.3
